Several values for one entry are separate records, joined by “and”; a condition that tells them apart may be missing. Equal entries are not always repeated.
How the values were obtained:
[1] = tested on: rats intoxicated with lead (lead acetate); experiment: Example 1: erdosteine per os vs NAC per os in rats intoxicated with lead; assay type: in vivo, Wistar rats; conditions: erdosteine 875 mg/kg or NAC 500 mg/kg per os once a day for 7 days
Protocol: 3. […] NAC has been mixed with bidistilled water, the resulting solution being administered in volume of 10 ml/kg.
4. […] Erdosteine has been mixed with bidistilled water and sodium hydrogen carbonate equimolar, the resulting solution being administered in volume of 10 ml/kg.
Mortality has been recorded. […] Few animals have been collected urine eliminated spontaneously for Pb—Hg analysis. Animals have been sacrificed under general anesthesia with ether. 6 animals of each group (3 males and 3 females) have been randomly selected for macroscopic and microscopic anatomic-pathological examination.

[2] = tested on: rats intoxicated with paracetamol; experiment: Example 4: erdosteine i.v. vs NAC i.v. in rats intoxicated with paracetamol; assay type: in vivo, Wistar rats
Text: Experiment has been carried on in parallel with experiment of example 3 and results of animals not intoxicated not treated (lot1) have been used as reference.
3. […] NAC has been dissolved in bidistilled water.
Animals have been monitored as described in example 3.
Mortality has been recorded.

[3] = tested on: rats intoxicated with lead (lead acetate); experiment: Example 5: erdosteine prophylaxis per os plus i.v. treatment in lead intoxication; assay type: in vivo, rats Wistar; set-up: RBC / ALT / Hct / MCH / Hb / WBC / Urea / Uric acid / AST: unit not given here
Protocol: The experiment has been structured for subjects that at a certain moment might be at higher risk to be intoxicated, for professional or other reasons. After intoxication the animals have been treated i.v.
Experiment has been carried out in parallel with example 3. Whatever not specified is identical with example 3.
Lot 14 One lot of 30 rats Wistar (15 males and 15 females) have been introduced in the experiment.
At day −2, day −1 and day 0 the animals have been administered 300 mg/kg erdosteine per os. At day 0, four hours after administration of erdosteine, the animals have been intoxicated with lead as described in example 3. After lead intoxications animals have been treated with erdosteine 350 mg/kg with the same protocol as described in example 3. […] Results have been compared with lot 2 since the experiments were carried out in parallel and results can be compared.

[4] = water (NAC: at 20° C.); cited from earlier work
[5] = tested on: rat intoxicated with lead (lead acetate); experiment: Example 3: erdosteine i.v. vs BAL+EDTA (TT) and association in rats intoxicated with lead; conditions: erdosteine 350 mg/kg i.v.
Text: The animals have been randomly divided in 6 lots.
2. […] Dosage administered is similar to the maximum possible dosage in man.
4. Erdosteine has been administered first, immediately after intoxication, followed rapidly by BAL and then EDTA by more operators in sequence, in order to simulate the situation in man when it is possible to administer i.v. in perfusion and at the same time i.m.
Mortality has been recorded. […] After 7 days urine have been taken through trans-vesica punction.
Analysis of mortality have been made using Chi square test.
Results with p<0.05 have been considered statistically significant.
Biochemical tests have been made with Refloton 2000, hematological tests with Hemastar 4, urine summary with Urilux, Pb in urine with GC-MS Varian

[6] = Pb intoxicated (lead acetate 4665 mg/kg per os), 30 animals/lot
[7] = survivors after 7 days, Pb intoxicated
[8] = paracetamol […] per os, erdosteine 350 mg/kg i.v. or NAC 114 mg/kg i.v. once a day for 7 days, 30 animals/lot
[9] = paracetamol intoxicated, erdosteine 350 mg/kg i.v. or NAC 114 mg/kg i.v., 7 days
[10] = survivors at 7 days, paracetamol intoxicated, erdosteine 350 mg/kg i.v. or NAC 114 mg/kg i.v.
[11] = lot 14: erdosteine 300 mg/kg per os at day -2, -1, 0, then lead acetate 4665 mg/kg per os and erdosteine 350 mg/kg i.v. once a day for 7 days, 30 rats
[12] = lot 14 survivors day 7, prophylaxis per os + Pb intoxication + erdosteine 350 mg/kg i.v.
[13] = lot 14 day 0 before intoxication, after erdosteine 300 mg/kg per os at day -2, -1, 0
[14] = Pb intoxicated (lead acetate 4665 mg/kg per os), BAL 25.2 mg/kg + EDTA 30 mg/kg i.m. (TT) or both, once a day for 7 days, 30 animals/lot
[15] = survivors after 7 days, Pb intoxicated, TT (BAL+EDTA i.m.) or both
[16] = survivors after 7 days, Pb intoxicated, TT (BAL+EDTA i.m.) or both, listed as Erdosteine
[17] = urine at the end of period (7 days), Pb intoxicated, TT or both

What does the source list for `O=C(O)CSCC(=O)NC1CCSC1=O` (centres unmarked) [erdosteine, Erdosteine]?
Mortality in percent [1, 6]: 16.6%; Mortality total [1, 6]: 5; Anatomical pathology: lesions (macroscopic and microscopic examination) ([1]; Pb intoxicated): less important damages; Pb in urine, Pb mean values ([1]; Pb intoxicated, GS MS Varian 4100): 10.9 mg/L; Creatinine mean values [1, 7]: 0.48 ^1, 2 mK/dl; Haematocrit mean values [1, 7]: 39.41^3; Haemoglobin mean values [1, 7]: 13.75^3 g/dl; Leucocytes mean values [1, 7]: 7.31^3; Urea mean values [1, 7]: 50.93 ^1, 2 mg/dl; Uric acid mean value [1, 7]: 1.90 ^3 mg/dl; erythrocytes mean values [1, 7]: 6.82^3 *10^6/mm^3; Mortality percentual [2, 8]: 27%; Total mortality [2, 8]: 8/30; Renal aggression (urine summary), in words ([2]; paracetamol intoxicated, erdosteine 350 mg/kg i.v. or NAC 114 mg/kg i.v.): antagonized; Urine summary: Bil. [2, 9]: 1 mg/dL; Urine summary: Chet [2, 9]: neg; Urine summary: Density [2, 9]: 1020; Urine summary: Erythrocyte [2, 9]: 25 µL⁻¹; Urine summary: Glucose [2, 9]: neg; Urine summary: Leuc [2, 9]: 10 µL⁻¹; Urine summary: Prot. [2, 9]: 50 mg/dL; Urine summary: UBG [2, 9]: 1 mg/dL; Urine summary: pH [2, 9]: 7; ALT [2, 10]: 165.4^2,3; AST [2, 10]: 45.2^2; HCT [2, 10]: 42.9^1; PLT [2, 10]: 749.8^2,3; RBC [2, 10]: 7.45^1; Urea [2, 10]: 55.2^2,3; Uric acid [2, 10]: 1.934^2,3; Mortality % [3, 11]: 20%; Total mortality [3, 11]: 6/30 ^2; ALT [3, 12]: 165.4^1,2; AST [3, 12]: 48.9^1,2; Hb [3, 12]: 17.12; Hct [3, 12]: 43.81; MCH [3, 12]: 23.12; PLT [3, 12]: 605; RBC [3, 12]: 7.446; Urea [3, 12]: 62.2^1,2; Uric acid [3, 12]: 2.71; WBC [3, 12]: 6.98; ALT [3, 13]: 166.2; AST [3, 13]: 36.2; Hb [3, 13]: 19.96; Hct [3, 13]: 47.45; MCH [3, 13]: 25.12; PLT [3, 13]: 793; RBC [3, 13]: 7.93; Urea [3, 13]: 54.86; Uric acid [3, 13]: 1.95; WBC [3, 13]: 4.90; solubility in water, in words [4]: moderately soluble; Mortality % [5, 14]: 37%; Total mortality [5, 14]: 11/30 and 11/30 ^1; Renal aggression (urine summary), in words ([5]; Pb intoxicated, TT or both): improvement compared with TT; Pb in urine of survivors at the end of period, mean values ([5]; Pb intoxicated, TT or both, once a day for 7 days): 164.6 mg/L; ALT [5, 15]: 159^2; AST [5, 15]: 57.2^3; Hb [5, 15]: 16.98; Hct [5, 15]: 42.9; MCH [5, 15]: 23.46; PLT [5, 15]: 574; RBC [5, 15]: 7.156; Urea [5, 15]: 69.4^3; Uric acid [5, 15]: 2.632; WBC [5, 15]: 6.16; ALT [5, 16]: 159^2,3; AST [5, 16]: 57.2; Hb [5, 16]: 16.98^3; PLT [5, 16]: 574^3; RBC [5, 16]: 7.156^1,3; Urea [5, 16]: 68.4; WBC [5, 16]: 6.16^3; Urine summary: Bil. [5, 17]: 3 mg/dL; Urine summary: Chet [5, 17]: 10 mg/dL; Urine summary: Density [5, 17]: 1020; Urine summary: Erythrocyte [5, 17]: 100 µL⁻¹; Urine summary: Glucose [5, 17]: 50 mg/dL; Urine summary: Leuc [5, 17]: 28 µL⁻¹; Urine summary: Prot. [5, 17]: 90 mg/dL; Urine summary: UBG [5, 17]: 1 mg/dL; Urine summary: pH [5, 17]: 6.5

From US9427426B2 (priority 2008, dated 2016)
